Laboratory results reported in patent publication US20250368638A1, “BICYCLIC INHIBITORS OF NICOTINAMIDE […], COMPOSITIONS AND USES THEREOF” (President and Fellows of Harvard College, priority 2021, published 2025).
Where “and” joins values, the source holds several entries; their conditions need not be identical. Equal values may be shown once.

Columns and labels:
recombinant human NNMT = biological target: T1, recombinant human NNMT (Homo sapiens, UniProt P40261); test: in vitro NNMT enzyme inhibition assay (Promega MTase-Glo Methyltransferase Assay); assay type: biochemical; conditions: 40 nM recombinant human NNMT, 8 μM nicotinamide, 6.7 μM SAM, 20 minutes
T1 sequence (P40261 1-264): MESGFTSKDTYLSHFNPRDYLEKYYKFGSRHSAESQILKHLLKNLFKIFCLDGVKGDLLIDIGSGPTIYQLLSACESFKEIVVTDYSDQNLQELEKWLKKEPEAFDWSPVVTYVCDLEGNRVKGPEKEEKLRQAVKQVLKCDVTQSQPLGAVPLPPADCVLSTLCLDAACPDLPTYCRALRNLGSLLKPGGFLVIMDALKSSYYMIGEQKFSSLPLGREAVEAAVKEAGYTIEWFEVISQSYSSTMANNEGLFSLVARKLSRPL
Method: NNMT biochemical activity for was evaluated using the Promega Mtase-Glo Methyltransferase Assay kit. Assays were performed in a white, flat-bottomed 96 well plate. […] Reactions were performed for 20 minutes at room temperature. MTase-Glo reagent and MTase-Glo detection solution were added according to manufacturer's instructions and luminescence signal measured with a SpectraMax i3 plate reader and data analyzed with GraphPad Prism version 9. Scheme 16 depicts a visual summary of the Promega MTase-Glo Methyltransferase assay used to assess biochemical activity of novel inhibitors.

FIG. 19 = test: FIG. 19
Method: Table printed on a drawing sheet, FIG. 19
Footnotes: %Q: The percent of compound remaining after 60 minutes of exposure to liver microsomes
The patent's description of the figure: FIG. 19 is a table summarizing PK/PD data for compounds 1 to 3 and 11.
First reader's note: The CL value of Compound 11 (36.1) is boxed on the sheet.

K562 (ATCC) cells = test: Cellular potency: 1-MNA levels in K562 cells after compound incubation; assay type: cell-based; conditions: Homo sapiens, 24 h incubation
Method: Cellular potency was measured in K562 (ATCC) cells via measuring (1-methyl nicotinamide) 1-MNA levels after compound incubation at varying concentrations overnight. Cells were plated at 1 million per well and were incubated for 24 h with compounds at indicated concentrations. Cells were collected by pipetting and extracted with 200 ul acetonitrile containing internal deuterated standard 10 ng/ml d4-1-MNA. Samples were analyzed on an Agilent 64-60 Triple Quad LC/MS with Agilent 1290 Infinity HPLC using a Restek Allure 5 um PPFP column 150 mm×2.1. The mobile phase A was 2.5 mM ammonium formate in water, and mobile phase B was methanol with 0.1% formic acid, delivered at 0.25 mL/min. The capillary voltage was set to 2400V and the nozzle at 300V. The drying gas temperature was 240° C., the drying gas flow rate was 4 L/min, and the nebulizer pressure was 40 psi. The mass spectrometer was run in multiple reaction monitoring mode. Mass transitions were m/z 137.1 à 94.1 for 1-MNA and m/z 141.1 à 98.1 for d4-MNA.

[1] = Permeability assay in Caco-2 cells; conditions: human; for Papp A→B at 2 h, 5 μM / Papp B→A at 2 h, 5 μM / efflux ratio at 2 h, 5 μM: Caco-2, pH 7.4; for recovery at 2 h, 5 µM: Caco-2
Method: Preparation of Caco-2 Cells: 50 μL and 25 mL of cell culture medium were added to each well of the Transwell insert and reservoir, respectively. And then the HTS transwell plates were incubated at 37° C., 5% CO2 for 1 hour before cell seeding. […] Cell culture medium was replaced every other day, beginning no later than 24 hours after initial plating.
Preparation of Stock Solutions: The stock solutions of control and test compounds were prepared in DMSO at the concentration of 10 mM. Digoxin, Prazosin and propranolol were used as control compounds in this assay.
Assay Procedures: The Caco-2 plate was removed from the incubator and washed twice with pre-warmed HBSS (10 mM HEPES, pH 7.4), and then incubated at 37° C. for 30 minutes. The stock solutions of controls and Test compounds were diluted in DMSO to get 1 mM solutions and then diluted with HBSS (10 mM HEPES, pH 7.4) to get 5 μM working solutions. The final concentration of DMSO in the incubation system was 0.5%. To determine the rate of drug transport in the apical to basolateral direction. Add 125 μL of the test compounds to the Transwell insert (apical compartment), and transfer 50 μL sample (DO sample) immediately from the apical compartment to a new 96-well plate. Fill the wells in the receiver plate (basolateral compartment) with 235 μL of HBSS (10 mM HEPES, pH 7.4). To determine the rate of drug transport in the basolateral to apical direction. Add 285 μL of the test compounds to the receiver plate wells (basolateral compartment), and transfer 50 μL sample (DO sample) immediately from the basolateral compartment to a new 96-well plate. Fill the Transwell insert (apical compartment) with 75 μL of HBSS (10 mM HEPES, pH 7.4). Time 0 samples were prepared by transferring 50 μL of 5 μM working solution to wells of the 96-deepwell plate, followed by the addition of 200 μL cold acetonitrile containing appropriate internal standards (100 nM alprazolam, 200 nM labetalol, 200 nM caffeine and 200 nM diclofenac). The plates were incubated at 37° C. for 2 hours. […] Samples were vortexed for 5 minutes and then centrifuged at 3,220 g for 40 minutes. An aliquot of 100 μL of the supernatant was mixed with 100 μL of ultra-pure water to use for LC-MS/MS analysis. To determine the Lucifer Yellow leakage after 2 hour transport period, stock solution of Lucifer yellow was prepared in water and diluted with HBSS (10 mM HEPES, pH 7.4) to reach the final concentration of 100 μM. 100 μL of the Lucifer yellow solution was added to each Transwell insert (apical compartment), followed by filling the wells in the receiver plate (basolateral compartment) with 300 μL of HBSS (10 mM HEPES, pH 7.4). The plates were incubated at 37° C. for 30 minutes. 80 μL samples were removed directly from the apical and basolateral wells (using the basolateral access holes) and transferred to wells of new 96 wells plates.

FIG. 20 = test: FIG. 20
Text: Table printed on a drawing sheet, FIG. 20
The patent's description of the figure: FIG. 20 is a table summarizing mean PK parameters of various compound 11 samples after different PO dosages in female C57B16/N mice.
First reader's note: The asterisks on two AUC values are not explained on the sheet; the first grid row holds only the heading 'PK Parameter'.

[2] = Caco-2, pH 7.4, Recovery (%) AP-BL
[3] = Caco-2, pH 7.4, Recovery (%) BL-AP

## NC(=O)c1cnc2c(c1)CCN2 [Compound 1]
Recombinant human NNMT
  IC50: 0.105 µM
FIG. 19
  %Q (Human): 101.05%
  %Q (Mouse): 88.98%
  AUClast: 0.255 µg·h/mL
  CL: 3.85 L/h/kg
  T1/2: 10.9 min
  Vss: 0.904 L/kg

## Cc1c(C(N)=O)cnc2c1C[C@@H](C)N2 [Compound 19A]
Recombinant human NNMT
  IC50: 0.028 µM and 0.028 to 0.043 µM
K562 (ATCC) cells
  IC50: 0.012 µM

## COc1cc2nc(N3CCN(C(=O)c4ccco4)CC3)nc(N)c2cc1OC [Prazosin]
[1]
  Papp A→B at 2 h, 5 μM: 94.4 nm/s
  Papp B→A at 2 h, 5 μM: 289 nm/s
  efflux ratio at 2 h, 5 μM: 3.06
[1]; [2]
  recovery at 2 h, 5 µM: 77%
[1]; [3]
  recovery at 2 h, 5 µM: 90.4%

## C[C@H]1O[C@@H](O[C@H]2[C@@H](O)C[C@H](O[C@H]3[C@@H](O)C[C@H](O[C@H]4CC[C@@]5(C)[C@H](CC[C@@H]6[C@@H]5C[C@@H](O)[C@]5(C)[C@@H](C7=CC(=O)OC7)CC[C@]65O)C4)O[C@@H]3C)O[C@@H]2C)C[C@H](O)[C@@H]1O [Digoxin]
[1]
  Papp A→B at 2 h, 5 μM: 6.7 nm/s
  Papp B→A at 2 h, 5 μM: 190 nm/s
  efflux ratio at 2 h, 5 μM: 28.2
[1]; [2]
  recovery at 2 h, 5 µM: 79.1%
[1]; [3]
  recovery at 2 h, 5 µM: 94.5%

## C[C@@H]1Cc2cc(C(N)=O)cnc2N1 [compound 11]
FIG. 20
  AUClast (h*ng/mL): 54,351 h*ng/mL
  F(%): >100%
  T1/2: 41.6 min and 50.5 min and 42.5 min
  Tmax: 20 min and 34.8 min

## C[C@H]1Nc2ncc(C(N)=O)cc2[C@@H]1C [Compound 26A]
Recombinant human NNMT
  IC50: 0.02 µM
K562 (ATCC) cells
  IC50: 0.114 µM

## CC(C)NCC(O)COc1cccc2ccccc12 (stereo not shown) [Propranolol]
[1]
  Papp A→B at 2 h, 5 μM: 269 nm/s
  Papp B→A at 2 h, 5 μM: 166 nm/s
  efflux ratio at 2 h, 5 μM: 0.62
[1]; [2]
  recovery at 2 h, 5 µM: 80%
[1]; [3]
  recovery at 2 h, 5 µM: 88.5%

## Cc1c(C(N)=O)cnc2c1CC(C)N2 (stereo not shown) [Compound 18]
Recombinant human NNMT
  IC50: 0.848 µM
